Experimental data: BindingDB's records for doi:10.1111/j.1747-0285.2009.00852.x (University of Jordan, 2009)

Target: Reverse transcriptase (Human immunodeficiency virus 2, UniProt Q06347)
Test: In Vitro Enzyme Assay
Conditions: pH 7.8; 37 °C
Procedure: The reverse transcriptase inhibitory activity of compound was evaluated by a non-radioactive colorimetric assay method. This procedure uses RT to synthesize DNA starting from the template/primer hybridpoly (A) x oligo (dT)15 and avoids the use of radio-labeled nucleotides.

Chain of Reverse transcriptase (Q06347 whole entry): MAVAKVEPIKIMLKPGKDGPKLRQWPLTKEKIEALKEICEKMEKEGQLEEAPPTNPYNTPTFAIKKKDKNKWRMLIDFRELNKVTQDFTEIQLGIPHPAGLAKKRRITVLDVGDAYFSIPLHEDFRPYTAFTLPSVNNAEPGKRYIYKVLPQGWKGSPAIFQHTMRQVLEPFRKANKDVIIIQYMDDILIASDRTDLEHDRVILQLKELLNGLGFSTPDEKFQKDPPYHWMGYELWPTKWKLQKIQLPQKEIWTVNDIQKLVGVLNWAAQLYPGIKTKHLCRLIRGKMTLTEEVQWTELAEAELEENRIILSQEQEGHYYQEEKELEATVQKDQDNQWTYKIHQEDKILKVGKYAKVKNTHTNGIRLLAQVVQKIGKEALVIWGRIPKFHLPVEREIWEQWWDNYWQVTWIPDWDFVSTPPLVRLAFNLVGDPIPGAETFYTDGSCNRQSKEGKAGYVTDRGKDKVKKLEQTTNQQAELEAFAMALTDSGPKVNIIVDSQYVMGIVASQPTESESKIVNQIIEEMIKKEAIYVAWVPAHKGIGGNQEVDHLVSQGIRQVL

Row | SMILES | IC50 [µM]
1 | Cc1ccnc2c1NC(=O)c1cccnc1N2C1CC1 [BI-RG-587] | 4.2
2 | Cc1ccc(S(=O)(=O)Oc2ccc(Cl)cc2Cl)cc1 [NCI Code, 4179] | 87.1
3 | CCCCN(CCCC)C(=O)c1ccc(Cl)cc1Cl [NCI Code, 6050] | 31.3
4 | CCCC(=O)Oc1ccc(C(C)(C)C)cc1Br [NCI Code, 6927] | 335
5 | CCCCCCc1nc2c([nH]1)c(=O)n(C)c(=O)n2C [NCI Code, 14129] | 18.9
